Test [1] addresses T1, Bcl-xL-Beclin 1 complex (Homo sapiens, UniProt Q07817).
T1 construct: made in house
The experiment in a line: Concentration response FP reconfirmation of HTS hits. Conditions: hits of first screen; for inhibition at 5 µM: read-out: Dose-response (% Inhibition) 5 μM; for inhibition at 10 µM: read-out: Dose-response (% Inhibition) 10 μM; for inhibition at 20 µM: read-out: Dose-response (% Inhibition) 20 μM; for inhibition at 40 µM: read-out: Dose-response (% Inhibition) 40 μM; for inhibition at 80 µM: read-out: Dose-response (% Inhibition) 80 μM; for inhibition at 160 µM: read-out: Dose-response (% Inhibition) 160 μM. Format: binding. As for the experimental part:
Then the plates were read by Envision (Perkin Elmer, Waltham, MA). […] The hits were selected from library stocks and reconfirmed in a concentration response FP assay (6 doses ranging from 5 μM to 160 μM or 8 doses ranging from 0.5 μM to 60 μM).

Test [2] has as its system DU145. The test can be described thus: MTT-based cytotoxicity assay, DU145. Conditions: Homo sapiens, DU-145, averages of at least two independent experiments, read-out: Cytotoxicity in different cell lines (IC50, μM) DU145. An excerpt:
(§1) Human prostate cancer cell lines PC-3 and DU145, were purchased from American Type Culture Collection (ATCC) and used within 50 passages. PC-3a is a derivative of PC-3 that is resistant to chemo/radiotherapy, established in our lab and confirmed by genotyping. All cells were maintained in DMEM (Mediatech, Manassas, VA) supplemented with 10% fetal bovine serum (FBS) (Sigma-Aldrich, St. Louis, MO), 1% Glutamine (Mediatech, Manassas, VA), 1% antibiotics (Mediatech, Manassas, VA). Compounds for primary FP-based HTS screening were from Prestwick, Microsource, University of Kansas Center of Excellence in Chemical Methodologies & Library Development (KU CMLD, Lawrence, KS), and Chembridge libraries. Compounds for MTT and SPR validation experiment were purchased from Microsource (Gaylordsville, CT) and Hit2lead Company (San Diego, CA). Acridine analogues, compound 1–6, were from our in-house library (provided by Specialized Chemistry Center, University of Kansas, Lawrence, KS); compound 7–17 were synthesized as described in supplementary information. (–)-Gossypol was isolated from racemic gossypol as we previously described. ABT-263 and DMSO were purchased from Sigma. MTT-based cytotoxicity assay and western blot analysis was carried out according to our previous publications. The primary antibodies used were LC3B (#2775) (Cell signaling Technology, Danvers, MA) and β-actin (A5441) (Sigma).
On the technique in general: Tetrazolium assays rely on reduction of a dye to a coloured formazan, in cell work by metabolically active cells.

Test [3] concerns PC-3a. The experiment in a line: MTT-based cytotoxicity assay, PC-3a. Conditions: Homo sapiens, averages of at least two independent experiments, read-out: Cytotoxicity in different cell lines (IC50, μM) PC-3a.
Description: as §1

Test [4] concerns PC-3. The test can be described thus: MTT-based cytotoxicity assay, PC-3. Conditions: Homo sapiens, averages of at least two independent experiments, read-out: Cytotoxicity in different cell lines (IC50, μM) PC-3.
Description: as §1

The target of test [5] is T2, Bcl-xL protein (Homo sapiens, UniProt Q07817).
T2 construct: made in house
T2 sequence (Q07817 whole entry): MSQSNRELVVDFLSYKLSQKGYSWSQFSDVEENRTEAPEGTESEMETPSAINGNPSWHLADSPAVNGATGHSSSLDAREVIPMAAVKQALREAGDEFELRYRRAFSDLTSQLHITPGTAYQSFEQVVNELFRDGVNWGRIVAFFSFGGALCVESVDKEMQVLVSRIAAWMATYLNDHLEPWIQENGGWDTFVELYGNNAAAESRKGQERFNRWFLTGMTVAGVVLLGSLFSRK
The experiment in a line: Surface plasmon resonance assay, immobilized Bcl-xL. It is filed as binding. Conditions: SPR; 10 μM compound; Bcl-xL immobilized 10000 RU. As for the experimental part:
The surface plasmon resonance experiments were performed using a Biacore 3000 (GE Healthcare Pittsburgh, PA) equipped with a research-grade CM5 sensor chip. The ligand (Bcl-xL) was immobilized using amine-coupling chemistry. The surfaces of flow cells on a Biacore sensor chip CM5 were activated for 7 min with a 1:1 mixture of 0.1 M NHS (N-hydroxysuccinimide) and 0.1 M EDC (3-(N,N-dimethylamino) propyl-N-ethylcarbodiimide) at a flow rate of 5 μL/min. The ligand (Bcl-xL) at a concentration of 180 μg/mL in 10 mM sodium acetate, pH 4.5, was immobilized at a density of about 10000 RU on flow cell 2; the ligand (SUMO-Bcl-2, 37.5 kDa, > 90% pure based on SDS–PAGE) at a concentration of 44 μg/ml in 10 mM sodium acetate, pH 4.5, was immobilized at a density of 10000 RU on flow cell 3; flow cell 1 was left blank to serve as a reference surface. All the surfaces were blocked with a 7 min injection of 1 M ethanolamine, pH 8.0.
For kinetic analysis, a concentration series of analyte were injected over the flow cells at a flow rate of 60 μL/min at 20 °C. The complex was allowed to associate and dissociate for 120 and 180 s, respectively. For binding studies, analyte (or test compound) was injected over the two flow cells in duplicate at indicated concentration at a flow rate of 60 μL/min at 20 °C. The running buffer consisted of 20 mM HEPES, 150 mM NaCl, 3 mM EDTA, 1 mM DTT, 0.05% P20, 5% DMSO, pH 7.4. The complex was allowed to associate and dissociate for 120 and 180 s, respectively. The buffer samples containing a range of 4–6% DMSO were injected at the beginning, used for solvent correction. The surfaces were regenerated between binding cycles with a 5 s injection of 5 mM NaOH for compounds and 10 mM Glycine pH 2.5 for 20-mer.
All measurements were taken with flow cell 1 as a reference (i.e. sensorgram depicts “2–1 correction”) and corrected for DMSO bulk differences via the calibration curves. To obtain kinetic rate constants (Ka and Kd), corrected response data were fit to a simple 1:1 interaction model using local fit (includes correction for mass transport limitations) available within Biaevaluation 3.1 software or Scrubber2 software. The equilibrium dissociation constant (KD) was determined by Kd/Ka.
On the technique in general: SPR reads the build-up and loss of mass on a sensor chip optically.

In test [6] the test system is PC-3 and PC-3a prostate cancer cells. The test can be described thus: Western blot of autophagy markers (LC3 conversion, P62). It is filed as cell-based, Human. The following applies: 24 h treatment. As for the experimental part:
(§2) Figure 5 Acridine compounds induce autophagy in prostate cancer cells (A) LC3-II conversion in western blot analysis indicated the activity of autophagy. Cells were treated with DMSO or compounds for 24 h, and then lysed and processed for western blot analysis of LC3. (–)G and EBSS were used as positive controls. […] Yellow puncta indicate autophagosome (overlay of red and green fluorescence); red puncta indicate autolysosome (due to green fluorescence quenching at the acidic condition). Cells expressing RFP-GFP-LC3 were treated with compounds A13, A15 or A21 at indicated concentration for 24 h.
Figure 8 Acridine compounds induce autophagy in PC-3 and PC-3a cancer cells LC3-II conversion in western blot analysis indicated the activity of autophagy. Cells were treated with DMSO or compounds for 24 h, and then lysed and processed for western blot analysis of LC3. (–)G and EBSS were used as positive controls.
as §1
In general terms: Immunoblotting shows a protein as a band on a membrane.

The test system of test [7] is PC-3 and PC-3a cells. The experiment in a line: RFP-GFP-LC3 fluorescence microscopy (autophagic flux). It is filed as cell-based, Human. Conditions: cells transfected with RFP-GFP-LC3, treated 24 h; PC-3a and PC-3. As for the experimental part:
as §2
PC-3 and PC-3a cells were transfected with ptfLC3 plasmid using Lipofectamine 2000 (Invitrogen Life Technologies, Carlsbad, CA). ptfLC3 was a gift from Tamotsu Yoshimori (Addgene plasmid # 21074), and is a tandem fluorescent-tagged LC3 with mRFP (mRFP, monomeric Red Fluorescent Protein) and EGFP (EGFP, Enhanced Green Fluorescent Protein). Twenty-four hours after transfection, cells were treated with compounds for 24 h, then fixed in 4% formaldehyde for 10 min. Cells were then washed three times with PBS, stained with DAPI (0.5 μg/ml in PBS) for 5 min and observed under a fluorescence microscope (OLYMPUS IX81, Tokyo, Japan) with X 40 lens.

Structures can show the parent of a compound that is named as a salt.

T1 sequence (Q07817 whole entry, one chain of several): as the sequence (Q07817 whole entry) above

For `Nc1ccc2cc3ccc(N)cc3nc2c1` [Compound A13, PROFLAVINE HEMISULFATE], in test [1], the inhibition at 5 µM stood at 55.9%, the inhibition at 10 µM was found to be 65.8%, the inhibition at 20 µM worked out at 101% and the inhibition at 40 µM came out at 102%. Also, in test [1], the inhibition at 80 µM was found to be 102% and the inhibition at 160 µM amounted to 102%. For the same compound, in test [2], the IC50 was 0.81 ± 0.51 µM. Further, the IC50 in test [3] came out at 0.68 ± 0.16 µM. In addition, the concentration for half-maximal inhibition (IC50) in test [4] came out at 1.08 ± 0.1 µM. Also, the “binding level to Bcl-xL protein in SPR” value in test [5] is “could bind to Bcl-xL”. In addition, the “LC3-I to LC3-II conversion” value in test [6] is “Increased level of LC3-II”. Moreover, the “RFP-GFP-LC3 puncta” value in test [7] is “many strong red puncta”.
`CCOc1ccc2nc3cc(N)ccc3c(N)c2c1` [Compound A15, ETHACRIDINE LACTATE]: in test [1], the inhibition at 5 µM is -0.5%, the inhibition at 10 µM came out at 6.2%, the inhibition at 20 µM came out at 14.9% and the inhibition at 40 µM came to 20%. Also, in test [1], the inhibition at 80 µM is 47.7% and the inhibition at 160 µM was determined as 60.9%. In addition, the IC50 in test [2] is 10.5 ± 1.11 µM. The concentration for half-maximal inhibition (IC50) in test [3] worked out at 2.33 ± 0.99 µM. Besides, the IC50 in test [4] is 1.61 ± 0.42 µM. The “binding level to Bcl-xL protein in SPR” value in test [5] is given as “could bind to Bcl-xL”. Also, the “LC3-I to LC3-II conversion” value in test [6] is “Increased level of LC3-II”. For the same compound, in test [7], the “RFP-GFP-LC3 puncta” value is listed as “many strong red puncta”.
As to `CCN(CC)CCCC(C)Nc1c2ccc(Cl)cc2nc2ccc(OC)cc12` (stereo not drawn) [Compound A21, QUINACRINE HYDROCHLORIDE], in test [1], the inhibition at 5 µM stood at 14.5%, the inhibition at 10 µM amounted to 26.7%, the inhibition at 20 µM turned out to be 38.6% and the inhibition at 40 µM was determined as 47.9%. Besides, in test [1], the inhibition at 80 µM turned out to be 58.3% and the inhibition at 160 µM is 66.3%. For the same compound, in test [2], the IC50 was found to be 2.31 ± 0.39 µM. Further, in test [3], the IC50 came out at 0.8 ± 0.12 µM. The IC50 in test [4] came out at 0.77 ± 0.1 µM. Further, in test [5], the “binding level to Bcl-xL protein in SPR” value was “could bind to Bcl-xL”. Further, the “LC3-I to LC3-II conversion” value in test [6] was “Increased level of LC3-II”. Besides, in test [7], the “RFP-GFP-LC3 puncta” value was “many strong red puncta”.

The term inhibition denotes the change of the read-out against control, counted positive when it falls. In general, IC50 refers to the concentration that inhibits the measured activity by half.
